Drawing on US10988433B2, “Cyclohexyl GPR40 agonists for the treatment of type II diabetes” (Janssen Pharmaceutica NV, priority 2016, dated 2021), this text covers EC50 for 20 molecules.

The structures appear in SMILES notation.

One test deals with T1, human GPR40 (Homo sapiens, UniProt O14842).
T1 construct: expressed in transfected cells
Briefly: GPR40 calcium flux assay, HEK293 cells stably expressing human GPR40. Particulars: transfected HEK293 cells stably expressing human GPR40, Fluo 8 dye, read-out: hGPR40 Ca2+ Assay EC50. The format is cell-based. The protocol:
(§1) Compounds were tested in a calcium flux assay using transfected HEK293 cells stably expressing either human GPR40 or rat GPR40. Human GPR40 expressing cells were cultured in DMEM-High Glucose media supplemented with 10% fetal bovine serum, 1×L-Glutamine, 1×Penicillin/Streptomycin and 500 μg/mL G418. Rat GPR40 expressing cells were cultured in DMEM-High Glucose media supplemented with 10% fetal bovine serum and 1 μg/mL puromycin. Cells were plated into poly-D-lysine coated 384-well plates and cultured overnight in a 37° C. humidified tissue culture incubator under 5% CO2/[…] atmosphere. On the day of the experiment, the culture media was replaced with assay buffer (HBSS, 20 mM HEPES, 0.1% BSA) and the cells incubated at 37° C. for 1 h. Calcium-sensitive fluorescent dye (Fluo 8 No-Wash Calcium Dye, ABD Bioquest) was then added and the cells incubated for another 30 min at 37° C. followed by 15 min at room temperature while protected from the light. The cell plate and a plate of diluted compounds of Formula (I) were loaded into a fluorescent plate reader that added compounds onto the cells while measuring the fluorescence intensity of each well. The plate reader recorded fluorescence intensity at 1 second intervals for 8 min and provided the data for analysis in an Excel format. EC50 values were calculated using Prism (GraphPad) software.
(Calcium assays in cells follow changes in intracellular calcium, usually with a dye or a luminescent sensor.)

A further test deals with T2, rat GPR40 (Rattus norvegicus, UniProt Q8K3T4).
T2 construct: expressed in transfected cells
T2 sequence (Q8K3T4 whole entry): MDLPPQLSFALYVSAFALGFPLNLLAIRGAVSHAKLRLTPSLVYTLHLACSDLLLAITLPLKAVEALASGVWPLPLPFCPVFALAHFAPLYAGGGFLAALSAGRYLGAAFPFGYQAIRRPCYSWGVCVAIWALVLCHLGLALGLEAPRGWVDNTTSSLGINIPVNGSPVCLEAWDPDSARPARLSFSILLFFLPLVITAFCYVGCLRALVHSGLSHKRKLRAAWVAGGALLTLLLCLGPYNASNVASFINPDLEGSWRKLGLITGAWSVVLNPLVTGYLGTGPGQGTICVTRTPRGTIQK
Briefly: GPR40 calcium flux assay, HEK293 cells stably expressing rat GPR40. It is filed as cell-based. Particulars: transfected HEK293 cells stably expressing rat GPR40, Fluo 8 dye, read-out: rGPR40 Ca2+ Assay EC50. The protocol:
as §1

T1 sequence (O14842 whole entry): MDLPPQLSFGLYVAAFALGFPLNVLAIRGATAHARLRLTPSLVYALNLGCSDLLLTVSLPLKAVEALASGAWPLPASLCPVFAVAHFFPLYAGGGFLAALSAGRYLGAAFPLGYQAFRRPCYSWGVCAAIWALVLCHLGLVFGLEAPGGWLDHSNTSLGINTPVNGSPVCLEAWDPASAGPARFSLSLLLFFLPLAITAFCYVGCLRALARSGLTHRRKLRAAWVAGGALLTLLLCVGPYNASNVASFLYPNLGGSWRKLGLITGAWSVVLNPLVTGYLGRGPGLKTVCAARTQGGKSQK

A word on the EC50: it is the concentration giving half of the maximal effect. `COc1ccc(F)c([C@H]2CC[C@H](COc3cc([C@H](C4CC4)C(C)(F)C(=O)O)ccn3)CC2)c1` (stereo partly drawn) [Cpd 79, (3S)-3-Cyclopropyl-2-fluoro-3-(2-(((1r,4S)-4-(2-fluoro-5-methoxyphenyl)cyclohexyl)methoxy)pyridin-4-yl)-2-methylpropanoic acid]: the results for the EC50 on human GPR40 and at rat GPR40 were 13 nM and 28 nM, respectively.

Take `COc1cc(C2CCC(COc3cccc([C@H](C4CC4)C(C)(F)C(=O)O)c3)CC2)ccn1` (mixture of isomers) [Cpd 69, (3S)-3-Cyclopropyl-2-fluoro-3-(3-((4-(2-methoxypyridin-4-yl)cyclohexyl)methoxy)phenyl)-2-methylpropanoic acid]: the EC50 at human GPR40 stood at 1.2 nM; on rat GPR40 it was 1.5 nM.

On to `COc1ccc(F)c([C@H]2CC[C@@H](COc3cccc([C@@H](Cc4nnn[nH]4)C4CC4)c3)CC2)c1` [Cpd 39, 5-((S)-2-Cyclopropyl-2-(3-(((1s,4R)-4-(2-fluoro-5-methoxyphenyl)cyclohexyl)methoxy)phenyl)ethyl)-1H-tetrazole], for which the half-maximal effective concentration (EC50) at human GPR40 came out at 600 nM; on rat GPR40, 3150 nM.

For `COc1ccc(F)c([C@H]2CC[C@H](COc3cc([C@H](CC(=O)O)C4CC4)ccn3)CC2)c1` [Cpd 26, (R)-3-cyclopropyl-3-(2-(((1r,4r)-4-(2-fluoro-5-methoxyphenyl)cyclohexyl)methoxy)pyridin-4-yl)propanoic acid], the EC50 on human GPR40 stood at 10.9 nM; on rat GPR40 it was 19.8 nM.

With `COc1cc([C@H]2CC[C@@H](COc3ccnc(C(CC(=O)O)C4CC4)c3)CC2)c(F)cn1` (stereo partly shown) [Cpd 32, 3-Cyclopropyl-3-(4-(((1s,4s)-4-(5-fluoro-2-methoxypyridin-4-yl)cyclohexyl)methoxy)pyridine-2-yl)propanoic acid], the values for the EC50 on human GPR40 and at rat GPR40 were 59 nM and 256 nM, respectively.

For the molecule `COc1cc([C@H]2CC[C@H](COc3cccc([C@@H](CC(=O)O)C4CC4)c3)CC2)c(F)cn1` [Cpd 9, (S)-3-Cyclopropyl-3-(3-(((1r,4S)-4-(5-fluoro-2-methoxypyridin-4-yl)cyclohexyl)methoxy)phenyl)propanoic acid], the EC50 is 0.5 nM on human GPR40 and 2.8 nM at rat GPR40.

With `COc1cc([C@]2(OC)CC[C@H](COc3cc([C@@H](CC(=O)O)C4CC4)ccn3)CC2)c(F)cn1` [Cpd 45, (S)-3-Cyclopropyl-3-(2-(((1r,4S)-4-(5-fluoro-2-methoxypyridin-4-yl)-4-methoxycyclohexyl)methoxy)pyridin-4-yl)propanoic acid], the EC50 at human GPR40 amounted to 258 nM; on rat GPR40, 855 nM.

Take `COc1ccc(F)c([C@H]2CC[C@H](COc3cc(C(CC(=O)O)C4CC4)ccn3)CC2)c1` (stereo partly shown) [Cpd 4, 3-Cyclopropyl-3-(2-(((1r,4r)-4-(2-fluoro-5-methoxyphenyl)cyclohexyl)methoxy)pyridin-4-yl) propanoic acid]: the EC50 at human GPR40 turned out to be 0.7 nM; at rat GPR40, 2.6 nM.

For `COc1ccc(F)c(C2CCC(COc3cccc([C@H](C4CC4)C(F)C(=O)O)c3)CC2)c1` (stereo partly drawn) [Cpd 54, (3S)-3-Cyclopropyl-2-fluoro-3-(3-(((1r,4S)-4-(2-fluoro-5-methoxyphenyl)cyclohexyl)methoxy)phenyl)propanoic acid], the EC50 is 0.5 nM on human GPR40 and 1.4 nM at rat GPR40.

For `COc1ccc(F)c([C@H]2CC[C@H](COc3cccc([C@H](CC(=O)O)C4CC4)c3)CC2)c1` [Cpd 38, (R)-3-cyclopropyl-3-(3-(((1r,4R)-4-(2-fluoro-5-methoxyphenyl)cyclohexyl)methoxy)phenyl)propanoic acid], the results for the half-maximal effective concentration (EC50) at human GPR40 and at rat GPR40 were 6.2 nM and 15.6 nM, respectively.

On to `COc1ccc(F)c([C@]2(F)CC[C@H](COc3cccc([C@@H](CC(=O)O)C4CC4)c3)CC2)c1` [Cpd 19, (S)-3-Cyclopropyl-3-(3-(((1r,4S)-4-fluoro-4-(2-fluoro-5-methoxyphenyl)cyclohexyl)methoxy)phenyl)propanoic acid], for which the values for the EC50 on human GPR40 and on rat GPR40 were 82.5 nM and 211 nM, respectively.

Consider `COc1cccc(C2CCC(COc3cccc([C@H](C4CC4)C(C)(F)C(=O)O)c3)CC2)c1` (stereo partly drawn) [Cpd 66, (3S)-3-Cyclopropyl-2-fluoro-3-(3-((4-(3-methoxyphenyl)cyclohexyl)methoxy)phenyl)-2-methylpropanoic acid], for which the EC50 at human GPR40 stood at 0.25 nM; at rat GPR40 it was 0.4 nM.

With `COc1ccc(F)c([C@H]2CC[C@H](COc3cccc(C(CC(=O)O)C4CC4)n3)CC2)c1` (mixture of isomers) [Cpd 13, 3-Cyclopropyl-3-(6-(((1r,4r)-4-(2-fluoro-5-methoxyphenyl)cyclohexyl)methoxy)pyridin-2-yl)propanoic acid], the EC50 on human GPR40 worked out at 32.7 nM; at rat GPR40, 143 nM.

For `COc1ccc(F)c(C2CCC(OCc3cccc([C@H](C4CC4)C(C)(F)C(=O)O)c3)CC2)c1` (stereo partly drawn) [Cpd 78, (3S)-3-Cyclopropyl-2-fluoro-3-(3-(((4-(2-fluoro-5-methoxyphenyl)cyclohexyl)oxy)methyl)phenyl)-2-methylpropanoic acid], the EC50 on human GPR40 stood at 2.2 nM; at rat GPR40, 5.5 nM.

With `CCc1ccc(F)c([C@H]2CC[C@H](COc3cccc([C@H](C4CC4)C(C)(F)C(=O)O)c3)CC2)c1` (stereo partly drawn) [Cpd 68, (3S)-3-Cyclopropyl-3-(3-(((1r,4S)-4-(5-ethyl-2-fluorophenyl)cyclohexyl)methoxy)phenyl)-2-fluoro-2-methylpropanoic acid], the EC50 on human GPR40 was 0.27 nM; on rat GPR40, 2.22 nM.

Consider `COc1cc([C@H]2CC[C@H](COc3cc([C@H](CC(=O)O)C4CC4)ccn3)CC2)c(F)cn1` [Cpd 24, (R)-3-Cyclopropyl-3-(2-(((1r,4R)-4-(5-fluoro-2-methoxypyridin-4-yl)cyclohexyl)methoxy)pyridin-4-yl)propanoic acid], for which the EC50 at human GPR40 turned out to be 8.4 nM; on rat GPR40, 20.7 nM.

In the case of `COc1ccc(C(=O)Nc2ccccn2)c(C2CCC(COc3cccc([C@H](C4CC4)C(C)(F)C(=O)O)c3)CC2)c1` (stereo partly drawn) [Cpd 71, (3S)-3-Cyclopropyl-2-fluoro-3-(3-((4-(5-methoxy-2-(pyridin-2-ylcarbamoyl)phenyl)cyclohexyl)methoxy)phenyl)-2-methylpropanoic acid], the EC50 was found to be 1.9 nM on human GPR40 and 2.36 nM at rat GPR40.

Take `COc1ccc(Cl)c(C2CCC(COc3cccc([C@H](C4CC4)[C@@](C)(F)C(=O)O)c3)CC2)c1` (stereo partly drawn) [Cpd 64, (2R,3S)-3-(3-((4-(2-Chloro-5-methoxyphenyl)cyclohexyl)methoxy)phenyl)-3-cyclopropyl-2-fluoro-2-methylpropanoic acid]: the EC50 on human GPR40 was found to be 0.19 nM; on rat GPR40 it was 0.56 nM.

For the molecule `COc1ccc(F)c([C@]2(OC)CC[C@H](COc3cccc([C@@H](CC(=O)O)C4CC4)c3)CC2)c1` [Cpd 12, (S)-3-Cyclopropyl-3-(3-(((1r,4S)-4-(2-fluoro-5-methoxyphenyl)-4-methoxycyclohexyl)methoxy)phenyl)propanoic acid], the EC50 at human GPR40 was 13.8 nM; on rat GPR40 it was 152 nM.

With `COc1ccc(F)c([C@H]2CC[C@@H](COc3cc(C(CC(=O)O)C4CC4)ccn3)CC2)c1` (stereo partly shown) [Cpd 5, 3-Cyclopropyl-3-(2-(((1 s,4s)-4-(2-fluoro-5-methoxyphenyl)cyclohexyl)methoxy)pyridin-4-yl)propanoic acid], the EC50 came out at 75.6 nM at human GPR40 and 146 nM on rat GPR40.
